Holding throughout (type): biochemical
Assay [1] has as its target T1, NDH-2 (type II NADH:quinone oxidoreductase) (Caldalkalibacillus thermarum, UniProt F5L3B8, I379E).
T1 construct: gene CathTA2_0279
Briefly: NADH:menadione oxidoreduction assay, […] menadione, […] NADH.

Assay [2] addresses T2, NDH-2 (type II NADH:quinone oxidoreductase) (Caldalkalibacillus thermarum, UniProt F5L3B8).
T2 construct: gene CathTA2_0279
Briefly: co-crystal structure at […] Å; IC50 in NADH:menadione oxidoreduction assay ([…] menadione) with purified enzyme.

Assay [3] concerns the target T2, NDH-2 (type II NADH:quinone oxidoreductase). Briefly: NADH:menadione oxidoreduction turnover of purified enzyme ([…] s^−[…] at […] MD).

The structures appear in SMILES notation.

T2 sequence (F5L3B8 entry or part of it): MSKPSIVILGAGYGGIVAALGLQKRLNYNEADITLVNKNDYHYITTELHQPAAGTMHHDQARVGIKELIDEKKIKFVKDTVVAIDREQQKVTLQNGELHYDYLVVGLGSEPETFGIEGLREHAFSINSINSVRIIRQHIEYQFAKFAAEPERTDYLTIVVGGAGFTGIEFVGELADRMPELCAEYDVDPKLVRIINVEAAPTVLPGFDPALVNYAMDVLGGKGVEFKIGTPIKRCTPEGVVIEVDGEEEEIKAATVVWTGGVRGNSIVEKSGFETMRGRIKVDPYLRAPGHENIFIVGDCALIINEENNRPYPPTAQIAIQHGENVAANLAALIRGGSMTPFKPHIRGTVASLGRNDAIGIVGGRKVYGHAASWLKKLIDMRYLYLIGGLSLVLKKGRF
T1 sequence (F5L3B8 entry or part of it I379E): as the sequence (F5L3B8 entry or part of it) above

`CCCCCCCc1cc(O)c2ccccc2[n+]1[O-]` [compound 1, 2-heptyl-4-hydroxyquinoline-N-oxide]: the results for the IC50 in assay [1] and in assay [2] were 54.3 ± 1.2 µM and 7.3 ± 1.2 µM, respectively.
`CC1=CC(=O)c2ccccc2C1=O` [menadione]: in assay [3], the “NADH:menadione oxidoreduction turnover of purified enzyme (959.3 s^-1 at 400 μM)” value was 959.3 s⁻¹.
